Measurements as given in paper PMC5552351, “Bacteriological profiling of diphenylureas as a novel class of antibiotics against methicillin-resistant Staphylococcus aureus” (PLoS ONE, 2017).
Converted amounts (≈) assume the structure as drawn. Each block holds one molecule with its values, some of them ahead of it.

Legend:
MRSA USA400 (NRS123) [1] = assay: MIC in presence and absence of human serum albumin; assay type: cell-based, Staphylococcus aureus; conditions: for MIC: Staphylococcus aureus, TSB
Description: The broth microdilution assay presented above was used to assess if compounds 1 and 2 bind to a major component of blood (human serum albumin) thus limiting the free fraction of drug available to exert its antibacterial effect. […] CaCl2 ([…]) was added to wells containing daptomycin, per the CLSI guidelines.

VRS10 [2] = assay: microbe, parasite or virus in culture; assay type: cell-based, Staphylococcus aureus; conditions: Staphylococcus aureus, read-out: MIC of vancomycin
Description: (§1) CAMHB was inoculated with strain VRS4 or strain VRS10 (5×10^5 CFU/mL), as described previously, with the following modifications. Aliquots ([…]) of the bacterial suspension were divided into micro-centrifuge tubes and compounds 1 or 2 (at ½ × MIC) were introduced into each tube. After 30 minutes of incubation at room temperature, samples from each tube were transferred to a new micro-centrifuge tube, prior to addition of vancomycin (at 128 μg/mL). Plates containing the test agents and bacteria were then incubated at 37 °C for 20–22 hours after which the MIC value was determined. A fold-reduction was calculated by comparing the MIC of vancomycin compared to the MIC of vancomycin given in combination with compounds 1 or 2 (at ½ × MIC).

VRS4 [3] = assay: microbe, parasite or virus in culture; assay type: cell-based, Staphylococcus aureus; conditions: Staphylococcus aureus, read-out: MIC of vancomycin
Description: as §1

MRSA NRS483 (USA1000) = assay: broth microdilution MIC/MBC; assay type: cell-based; conditions: Staphylococcus aureus
Description: (§2) The broth microdilution assay was employed to determine the MIC of compounds 1, 2, and vancomycin against five MRSA strains, four VRSA strains, one highly mupirocin-resistant S. aureus strain, one biofilm-forming S. aureus (ATCC 6538) strain, and one biofilm-forming methicillin-resistant S. epidermidis strain, as per the guidelines of the Clinical and Laboratory Standards Institute (CLSI). […] The MBC was determined by plating an aliquot (5 μL) from wells with no growth onto TSA plates. Plates were incubated at 37 °C for 19 hours before recording the MBC (concentration where no growth was observed on TSA plates).

MRSA NRS123 (USA400) = assay: broth microdilution MIC/MBC; assay type: cell-based; conditions: Staphylococcus aureus
Description: as §2

VRS10 [4] = assay: broth microdilution MIC/MBC; assay type: cell-based; conditions: Staphylococcus aureus
Description: as §2

S. aureus NRS107 = assay: broth microdilution MIC/MBC; assay type: cell-based; conditions: Staphylococcus aureus, NRS107
Description: as §2

MRSA NRS484 (USA1100) = assay: broth microdilution MIC/MBC; assay type: cell-based; conditions: Staphylococcus aureus
Description: as §2

VRS4 [5] = assay: broth microdilution MIC/MBC; assay type: cell-based; conditions: Staphylococcus aureus
Description: as §2

MRSA NRS384 (USA300) = assay: broth microdilution MIC/MBC; assay type: cell-based; conditions: Staphylococcus aureus
Description: as §2

VRS7 = assay: broth microdilution MIC/MBC; assay type: cell-based; conditions: Staphylococcus aureus
Description: as §2

VRS11a = assay: broth microdilution MIC/MBC; assay type: cell-based; conditions: Staphylococcus aureus
Description: as §2

MRSA NRS387 (USA800) = assay: broth microdilution MIC/MBC; assay type: cell-based; conditions: Staphylococcus aureus
Description: as §2

MRSA USA300 (NRS384) = assay: time-kill assay; assay type: cell-based, Staphylococcus aureus; conditions: 4 × MIC
[6] = tested on: S. aureus ATCC 6538 biofilm; assay: bacterial CFU inside mature biofilm post-treatment; assay type: cell-based, Staphylococcus aureus; conditions: 64 μg/mL, 24 hours
Description: (§3) Compounds 1, 2, and vancomycin were examined for their ability to eradicate mature staphylococcal biofilm using the microtiter dish biofilm formation assay. S. epidermidis NRS101 and S. aureus ATCC 6538 were selected as the test organisms given their ability to form strong adherent biofilm. An overnight culture of bacteria was diluted (1:100 in TSB + 1% glucose) and transferred to a 96-well plate. The plate was incubated for 24 hours at 37 °C in order to form adherent biofilm on the surface of the plate wells. The medium containing the bacterial suspension was removed and the biofilm was washed with sterile PBS to remove planktonic cells. Compounds 1, 2, or vancomycin (from 128 to 1 μg/mL), in triplicate, in TSB were incubated with the biofilm for 24 hours at 37 °C.
(§4) For enumeration of viable CFU inside the biofilm, compounds were removed, wells were washed with sterile PBS, and treated with 0.25% Trypsin-2.21 mM EDTA solution as described elsewhere. The solution containing cells was transferred to a 96-well plate, serially diluted in PBS, and plated on TSA. Plates were incubated at 37 °C for 19 hours before viable CFU were counted. Data are presented as average log10(CFU/mL) of bacteria present in the biofilm post-treatment.

[7] = tested on: S. aureus NRS107 (RN4220); assay: accumulation of UDP-N-acetylmuramyl pentapeptide (HPLC-MS); assay type: cell-based, Staphylococcus aureus; conditions: 10 × MIC, 30 minutes
Description: The accumulation of UDP-N-acetylmuramyl pentapeptide was detected using a procedure described in a previous study, with the following modifications. S. aureus NRS107 (RN4220), in early logarithmic growth stage (OD600 ~ 0.60), was incubated with 130 μg/mL chloramphenicol for 15 minutes at 37°C. […] Untreated samples served as a negative control. Samples were centrifuged at 10,000 rpm for five minutes, the supernatant discarded, and the pellet re-suspended in sterile deionzined water (1 mL). The pellet was boiled at […] for 30 minutes before samples were chilled on ice for 10 minutes. UDP-N-acetylmuramyl-pentapeptide was measured using an Agilent High Performance Liquid Chromatography coupled to a time-of-flight Mass Spectrometer (HPLC-MS). A Waters XBridge Phenyl (2.1 × 100 mm, 3.5 μm) chromatography column was used, with mobile phases of water, 0.1% formic acid (Buffer A) and acetonitrile, 0.1% formic acid (Buffer B). A gradient of 5–20% Buffer B over 14 minutes was used, with a flow rate of 0.3 mL/min. An electrospray source was used, in positive ionization mode. Extracted Ion Chromatograms (EIC) were generated at a mass-to-charge ratio (m/z) of 1150.3588 (20 ppm window). Mass error for UDP-N-acetylmuramyl-pentapeptide was <1 ppm.

[8] = tested on: S. aureus ATCC 6538 biofilm; assay: biofilm mass disruption, crystal violet reporter assay; assay type: cell-based, Staphylococcus aureus; conditions: all concentrations tested
Description: as §3
(§5) Compounds were subsequently removed. The biofilm was washed with PBS and then stained with 1% (w/v) crystal violet for 40 minutes. The stain was removed and wells were washed with sterile PBS. Wells were next decolorized using 95% ethanol. The optical density of each well at 595 nm was measured using a microplate reader.

[9] = tested on: S. epidermidis NRS101 biofilm; assay: bacterial CFU inside mature biofilm post-treatment; assay type: cell-based, Staphylococcus epidermidis; conditions: 24 hours
Description: as §3, §4

[10] = tested on: clinically-relevant strains of MRSA and VRSA; assay: broth microdilution MIC/MBC, panel summary; assay type: cell-based; conditions: Staphylococcus aureus, read-out: concentration inhibiting growth of MRSA isolates (MIC)
Description: as §2

[11] = tested on: S. epidermidis NRS101 biofilm; assay: biofilm mass disruption, crystal violet reporter assay; assay type: cell-based, Staphylococcus epidermidis; conditions: 24-hour treatment
Description: as §3, §5

S. epidermidis NRS101 = assay: broth microdilution MIC; assay type: cell-based; conditions: Staphylococcus epidermidis, NRS101
Description: as §2

S. aureus ATCC 6538 = assay: broth microdilution MIC; assay type: cell-based; conditions: Staphylococcus aureus, ATCC6538
Description: as §2

Bacillus subtilis = assay: Bacterial Cytological Profiling (BCP); assay type: cell-based; conditions: two hours, LB-MSM osmotically buffered media, 37 °C
Description: B. subtilis cells were grown in Luria Bertani (LB) medium at 37 °C until the optical density at 600 nm (OD600) was ~0.20. Cells were then left untreated or treated with compound 1 or control antibiotics in the presence of methylsulfonylmethane (MSM), as described previously. After two hours, cells were stained with FM 4−64 (1 μg/mL) to visualize cell membranes; DAPI (1 μg/ml) to visualize DNA, and SYTOX Green (1 μg/mL), a vital stain which is normally excluded from cells with an intact membrane but brightly stains cells that are lysed. Images were collected using a Delta Vision Spectris Deconvolution microscope, as described previously.

MRSA USA400 (NRS123) [12] = assay: multi-step resistance selection; assay type: cell-based, Staphylococcus aureus; conditions: for increase in MIC after fourteen passages: fourteen passages over two weeks; for MIC: Staphylococcus aureus, read-out: initial MIC
Description: To assess MRSA’s ability to develop resistance to the diphenylurea compounds after repeated exposure, a multi-step resistance selection experiment was conducted. […] Resistance was classified as a greater than four-fold increase in the initial MIC, as reported elsewhere.

[13] = 4% human serum albumin, read-out: MIC vs. MRSA USA400 (+HSA)
[14] = without human serum albumin, read-out: MIC vs. MRSA USA400 (-HSA)

MIC (MRSA USA400 (NRS123) [1]; [13]): 64 µg/mL (≈ 39.5 µM)
MIC (MRSA USA400 (NRS123) [1]; [14]): 2 µg/mL (≈ 1.23 µM)
Molecule: CCCCCCCCCC(=O)N[C@@H](Cc1c[nH]c2ccccc12)C(=O)N[C@H](CC(N)=O)C(=O)N[C@@H](CC(=O)O)C(=O)N[C@@H]1C(=O)NCC(=O)N[C@@H](CCCN)C(=O)N[C@@H](CC(=O)O)C(=O)N[C@H](C)C(=O)N[C@@H](CC(=O)O)C(=O)NCC(=O)N[C@H](CO)C(=O)N[C@@H]([C@H](C)CC(=O)O)C(=O)N[C@@H](CC(=O)c2ccccc2N)C(=O)O[C@@H]1C [Daptomycin, daptomycin, reference compound]

Molecule: CN[C@H](CC(C)C)C(=O)N[C@H]1C(=O)N[C@@H](CC(N)=O)C(=O)N[C@H]2C(=O)N[C@H]3C(=O)N[C@H](C(=O)N[C@H](C(=O)O)c4cc(O)cc(O)c4-c4cc3ccc4O)[C@H](O)c3ccc(c(Cl)c3)Oc3cc2cc(c3O[C@@H]2O[C@H](CO)[C@@H](O)[C@H](O)[C@H]2O[C@H]2C[C@](C)(N)[C@H](O)[C@H](C)O2)Oc2ccc(cc2Cl)[C@H]1O [Vancomycin, vancomycin, reference compound]
MIC (VRS10 [2]): 512 µg/mL
MIC (VRS4 [3]): 512 µg/mL
MBC (MRSA NRS483 (USA1000)): 1 µg/mL (≈ 0.69 µM)
MIC (MRSA NRS483 (USA1000)): 1 µg/mL (≈ 0.69 µM)
MBC (MRSA NRS123 (USA400)): 1 µg/mL (≈ 0.69 µM)
MIC (MRSA NRS123 (USA400)): 1 µg/mL (≈ 0.69 µM)
MBC (VRS10 [4]): > 64 µg/mL
MIC (VRS10 [4]): > 64 µg/mL
MBC (S. aureus NRS107): 2 µg/mL (≈ 1.38 µM)
MIC (S. aureus NRS107): 1 µg/mL (≈ 0.69 µM)
MBC (MRSA NRS484 (USA1100)): 2 µg/mL (≈ 1.38 µM)
MIC (MRSA NRS484 (USA1100)): 1 µg/mL (≈ 0.69 µM)
MBC (VRS4 [5]): > 64 µg/mL
MIC (VRS4 [5]): 64 µg/mL (≈ 44.2 µM)
MBC (MRSA NRS384 (USA300)): 0.5 µg/mL (≈ 0.345 µM)
MIC (MRSA NRS384 (USA300)): 0.5 µg/mL (≈ 0.345 µM)
MBC (VRS7): > 64 µg/mL
MIC (VRS7): 64 µg/mL (≈ 44.2 µM)
MBC (VRS11a): > 64 µg/mL
MIC (VRS11a): > 64 µg/mL
MBC (MRSA NRS387 (USA800)): 1 µg/mL (≈ 0.69 µM)
MIC (MRSA NRS387 (USA800)): 0.5 µg/mL (≈ 0.345 µM)
time to completely eradicate a high inoculum of MRSA (~10^6 CFU/mL) (MRSA USA300 (NRS384)): 24 hours
reduction in bacterial CFU within S. aureus biofilm [6]: 1.0 log10
UDP-N-acetylmuramyl pentapeptide accumulation [7]: notable increase
change in optical density of S. aureus biofilm (biofilm mass) [8]: no change
reduction in bacterial CFU within S. epidermidis biofilm ([9]; 64 μg/mL): 1.4 log10
reduction in bacterial CFU within S. epidermidis biofilm ([9]; 128 μg/mL): 3.14 log10
MIC [10]: 0.5 to 1 µg/mL (≈ 0.345 to 0.69 µM)
S. epidermidis biofilm mass, OD595 ([11]; 128 μg/mL, untreated control OD595 = 4.00): 3.80
reduction in S. epidermidis biofilm mass ([11]; 8 to 64 μg/mL, vs untreated control): no significant reduction
MIC (S. epidermidis NRS101): 1 µg/mL (≈ 0.69 µM)
MIC (S. aureus ATCC 6538): 0.5 µg/mL (≈ 0.345 µM)

Molecule: Cc1onc(-c2ccccc2Cl)c1C(=O)N[C@@H]1C(=O)N2[C@@H]1SC(C)(C)[C@@H]2C(=O)O [cloxacillin]
cytological profile (cell morphology) (Bacillus subtilis): bulges at the poles of the cells

Molecule: O=C(O)c1cn(C2CC2)c2cc(N3CCNCC3)c(F)cc2c1=O [ciprofloxacin]
increase in MIC after fourteen passages (MRSA USA400 (NRS123) [12]; MRSA USA400 (NRS123)): seven-fold
increase in MIC after seven passages (MRSA USA400 (NRS123) [12]; MRSA USA400 (NRS123), seven passages): three-fold
MIC (MRSA USA400 (NRS123) [12]): 1 µg/mL (≈ 3.02 µM)

Molecule: N[C@@H]1CON=C1O [D-cycloserine]
cytological profile (cell morphology) (Bacillus subtilis): bulges and misshapen cells

Molecule: Cc1onc(-c2ccccc2)c1C(=O)N[C@@H]1C(=O)N2[C@@H]1SC(C)(C)[C@@H]2C(=O)O [oxacillin]
cytological profile (cell morphology) (Bacillus subtilis): bulges and misshapen cells

Molecule: ramoplanin
cytological profile (cell morphology) (Bacillus subtilis): bulges and misshapen cells

Molecule: CC(=O)NC[C@H]1CN(c2ccc(N3CCOCC3)c(F)c2)C(=O)O1 [Linezolid, linezolid, reference compound]
increase in MIC in the presence of HSA (MRSA USA400 (NRS123) [1]; MRSA USA400, 4% human serum albumin vs none): remained unchanged
MIC (MRSA USA400 (NRS123) [1]; [13]): 1 µg/mL (≈ 2.96 µM)
MIC (MRSA USA400 (NRS123) [1]; [14]): 1 µg/mL (≈ 2.96 µM)
increase in MIC after fourteen passages (MRSA USA400 (NRS123) [12]; MRSA USA400 (NRS123)): one-fold
MIC (MRSA USA400 (NRS123) [12]): 2 µg/mL (≈ 5.93 µM)
